{"source": "patent US8299040B2", "about": "“Methods for treating cancer targeting transglutaminase” (Board of Regents, The University of Texas System, priority 2006, dated 2012)", "key": {"[1]": {"test_system": "NF-κB", "assay": "NF-κB activation by EMSA, Panc28 cells", "format": "cell-based, human", "conditions": "for effect on A23187-induced activation of NF-κB: Panc28", "description": "(§1) To assess NF-κB activation, electrophoretic mobility shift assay (EMSA) was performed as described previously. Briefly, nuclear extracts prepared from cells (1×10^6/ml) were incubated with a ^32P end-labeled 45-mer double-stranded NF-κB oligonucleotide (15 μg of protein with 16 fmol of DNA) from the human immunodeficiency virus long terminal repeat, 5′-[…] […] CGCTG […] […]-3′ (boldface indicates NF-κB binding sites) (SEQ ID NO:17), for 30 minutes at 37° C., and the DNA-protein complex formed was separated from free oligonucleotide on 6.6% native polyacrylamide gels. A double-stranded mutated oligonucleotide, 5′-[…] […] CGCTG […] […]-3′ (SEQ ID NO:18), was used to examine the specificity of binding of NF-κB to the DNA. The specificity of binding was also examined using competition with the unlabeled and mutated oligonucleotides. For supershift assays, nuclear extracts were incubated with antibodies against either the p50 or the p65 subunit of NF-κB for 30 minutes at 37° C. before the complex was analyzed using EMSA."}, "[2]": {"test_system": "NF-κB", "assay": "NF-κB activation by EMSA, BxPc3 cells", "format": "cell-based, human", "conditions": "1 μM or 2 μM, 24 hours", "description": "as §1"}, "[3]": {"test_system": "NF-κB", "assay": "NF-κB activation by EMSA, MCF-7 cells", "format": "cell-based, human", "conditions": "MCF-7 cells (lack TG2)", "description": "as §1"}, "[4]": {"test_system": "NF-κB", "assay": "NF-κB-dependent SEAP reporter gene assay, MCF-7/WT cells", "format": "cell-based, human", "description": "(§2) NF-κB dependent reporter gene transcription was analyzed using secretory alkaline phosphatase (SEAP) assay as described previously. Briefly, Panc28 and MCF-7 cells (5×10^5 cells/well in a six-well plate) were transiently transfected by the calcium phosphate method in a 1 ml medium containing 0.5 μg of NF-κB promoter DNA, linked to the heat-stable SEAP gene or with the control plasmid pCMV-FLAG1 DNA. Transfected cells were either left untreated or treated with 1 μM A23187 (Sigma-Aldrich), 1 mM BPA, or 1 nM tumor necrosis factor (TNF)-α (Genentech, South San Francisco, Calif.). Twenty-four hours after treatment, the conditioned medium was removed and assayed for SEAP activity according to the manufacturer's instructions (Clontech Laboratories, Mountain View, Calif.) using an automated microplate reader (PerkinElmer, Wellesley, Mass.). In some experiments cells were co-transfected with dominant-negative construct of IκBα along with NF-κB reporter gene."}, "[5]": {"test_system": "NF-κB", "assay": "NF-κB-dependent SEAP reporter gene assay, Panc28 cells", "format": "cell-based, human", "description": "as §2"}, "[6]": {"test_system": "Panc-28 cells", "assay": "Gemcitabine cytotoxicity, MTS assay, Panc-28", "format": "cell-based", "conditions": "Homo sapiens, 72 hours", "description": "(§3) The number of viable cells remaining after the appropriate treatment was determined by measuring their ability to reduce 3-(4,5-dimethylthiazol-2-yl)-5-(3-carboxymethoxyphenyl)-2H-tetrazolium (MTS) into a soluble formazan in accordance with the manufacturer's instructions. Logarithmically growing cells were plated at 2×10^3 cells per well in 96-well plates and allowed to adhere overnight. […] Each experiment was repeated three times in triplicate. […] Under identical conditions, the cells were trypsinized, and the cell viability was determined with a trypan blue exclusion test to confirm the MTS results."}, "[7]": {"test_system": "MiaPaCa-2 cells", "assay": "Gemcitabine cytotoxicity, MTS assay, MiaPaCa-2", "format": "cell-based", "conditions": "Homo sapiens, MIA PaCa-2, 72 hours", "description": "as §3"}, "[8]": {"test_system": "BxPC-3 cells", "assay": "Gemcitabine cytotoxicity, MTS assay, BxPC-3", "format": "cell-based", "conditions": "Homo sapiens", "description": "as §3"}, "[9]": {"test_system": "Panc-28 tumors", "assay": "Orthotopic Panc-28 PDAC tumor model: tumor growth and metastasis", "format": "in vivo, nude (nu/nu) mice", "conditions": "vs control siRNA group, end of treatment", "from_the_text": "Panc-28 cells were stably transduced with the firefly luciferase gene as described previously (23). Luciferase-infected Panc-28 cells were harvested from subconfluent cultures after brief exposure to 0.25% trypsin and 0.2% EDTA. Trypsinization was stopped with the medium containing 10% fetal bovine serum. The cells were washed once in serum-free medium and resuspended in PBS. Single cell suspensions with >90% cell viability were used for implantation into the mice. Animals were anesthetized using intraperitoneal injection of 200 μl ketamine (100 mg/kg) and xylazine (5-10 mg/kg). […] The incision was closed in a single layer using sterile surgical Autoclips (Braintree Scientific, Braintree, Mass.), antibacterial mycotic cream was applied to the wound and the animal was placed on a heating pad to maintain body temperature and closely monitored until conscious.\nTumor growth in the mice after tumor-cell implantation was monitored weekly using a noninvasive bioimaging technique. […] Ten minutes after injection, each mouse was placed in the right lateral decubitus position, and bioluminescence was measured using a cryogenically cooled IVIS imaging system coupled with a data acquisition computer running LivingImage software (Xenogen Corp., Alameda, Calif.). […] The signal intensity was quantified as the sum of all detected photons within the region of interest per second per cm^2 per steridian. […]"}, "[10]": {"test_system": "VEGF, pAkt (ser473)", "assay": "VEGF and pAkt expression in Panc-28 tumors", "set-up": "species or system nude mice", "conditions": "mouse, in vivo", "description": "Pancreatic tumor tissue samples obtained from control and experimental mice were minced and incubated on ice for 30 min in 0.5 ml of ice-cold lysate buffer (20 mmol/L Tris-HCl, pH 7.4, containing 10% NP-40, 5 mol/L NaCl, 1 mol/L HEPES, 0.5 mol/L EDTA, 0.1 mol/L phenylmethylsulfonyl fluoride, 0.2 mol/L sodium orthovanadate, 1 mol/L NaF, 2 μg/ml aprotinin, and 2 μg/ml leupeptin). The minced tissue was homogenized using a Dounce homogenizer and centrifuged at 16,000×g at 4° C. for 10 min. Fifty micrograms of total protein from each sample was then fractionated using sodium dodecyl sulfate-polyacrylamide gel, electrotransferred onto nitrocellulose membranes, blotted with appropriate antibodies, and antigen antibody reaction detected using enhanced chemiluminescence (Amersham Pharmacia Biotech, Piscataway, N.J.). […] The protein bands obtained were quantified using the AlphaEase FC (Fluor Chem 8900) software program (Alpha Innotech, San Leandro, Calif.).\nTissue microarray slides constructed using 65 formalin-fixed patient tumor samples and 9 normal pancreatic tissue samples were used for this study. […] TG2 protein expression in these tumor samples and xenograft tumors from siRNA treated mice was evaluated immunohistochemically using the Vectastatin Elite ABC immunostaining kit (Vector Laboratories, Burlingame, Calif.) as described previously (12). […]"}, "[11]": {"test_system": "Panc-28 tumors", "assay": "Ki-67 proliferation staining of Panc-28 tumors", "set-up": "species or system nude mice", "conditions": "mouse, in vivo", "description": "Ki-67 staining was used to evaluate the proliferation index of in vivo growing xenografts and expressed as the number of Ki-67^+ cells±standard error (SE) as determined by counting 10 random microscopic fields for three different tumor samples per treatment group."}, "[12]": {"test_system": "Panc-28 tumors", "assay": "Microvessel density (CD31) in Panc-28 tumors", "format": "in vivo, nude mice", "conditions": "CD31 staining", "description": "A rat anti-mouse CD31 monoclonal antibody was used to determine the microvessel density in xenografts. The CD31 stained slides were observed under a Leica DM4000B fluorescence microscope (Leica Microsystems Inc, Bannockburn, Ill.) equipped with SPOT-RTKE digital camera (Diagnostic instruments, Sterling Heights, Mich.) and the images were acquired and stored using SPOT advanced software (Diagnostic instruments, Sterling Heights, Mich.). The stored images were processed using NIH ImageJ software. The vessel density in each image was estimated by setting a minimum threshold of 4 pixel^2. Setting a minimum threshold enables to avoid the background non-specific staining and to eliminate the fluorescence signal from single endothelial cell. Results were expressed as the mean number of vessels±SE per high power field (HPF, 100× magnification). A total of 20 random HPFs were examined and counted in four different tumor samples from each treatment group."}, "[13]": {"test_system": "Panc-28 tumors", "assay": "TUNNEL assay of apoptosis in Panc-28 tumors", "format": "in vivo, nude mice", "description": "Terminal deoxynucleotidyl transferase mediated […] nick end labeling (TUNNEL) assay (Roche Molecular Biochemicals, Mannhein, Germany) of frozen sections to detect apoptotic cells was performed according to the manufacturer's protocol. The apoptotic fluorescence-positive cells were counted under a microscope and expressed as the percentage of total cells±SE. Ten fields in three tumors per treatment group were examined."}}, "note": "Entries after “also recorded” stand apart in the source; their conditions may differ.", "data": [{"compound": "CNc1ccc2oc(C[C@H]3O[C@@]4(CC[C@H]3C)O[C@H]([C@H](C)C(=O)c3ccc[nH]3)[C@H](C)C[C@H]4C)nc2c1C(=O)O", "note": "[A23187]", "values": [{"measurement": "basal TG2 activity and constitutive NF-κB activation", "setting": "[1]; Panc28 cells", "result": "could be further induced"}, {"measurement": "NF-κB activation", "setting": "[2]", "result": "strong activation of NF-κB"}, {"measurement": "NF-κB activation", "setting": "[3]", "result": "failed to show an increase in NF-κB activation"}, {"measurement": "A23187-induced SEAP activity", "setting": "[4]", "result": "No basal or A23187-induced activity of SEAP"}, {"measurement": "SEAP expression in response to A23187", "setting": "[5]; Panc28, 1 µM for 24 hours", "result": "did not increase further"}]}, {"compound": "NCCCCCNC(=O)CCCC[C@@H]1SC[C@@H]2NC(=O)N[C@@H]21", "note": "[BPA, 5-(biotinamido) pentylamine]", "values": [{"measurement": "inhibition at 1000 µM", "setting": "[1]; Homo sapiens, Panc28, 1 mM for 24 hours, read-out: inhibition of constitutive activation of NF-κB", "result": "~70", "unit": "%"}, {"measurement": "effect on A23187-induced activation of NF-κB", "setting": "[1]", "result": "failed to further augment A23187-induced activation of NF-κB"}, {"measurement": "inhibition of TNF-α-induced SEAP expression", "setting": "[4]; BPA 1 mM", "result": "not by BPA"}, {"measurement": "inhibition of SEAP expression", "setting": "[5]; Panc28, P<0.002", "result": "significantly inhibited"}]}, {"compound": "CN(C)c1cccc2c(S(=O)(=O)NCCCCCN)cccc12", "note": "[MDC, monodansylcadaverine]", "values": [{"measurement": "inhibition at 50 µM", "setting": "[1]; Homo sapiens, Panc28, 50 μM, 24 hours", "result": "~60", "unit": "%"}, {"measurement": "effect on A23187-induced activation of NF-κB", "setting": "[1]", "result": "blocked A23187-induced activation"}]}, {"compound": "Nc1ccn([C@@H]2O[C@H](CO)[C@@H](O)C2(F)F)c(=O)n1", "note": "[gemcitabine]", "values": [{"measurement": "IC50", "setting": "[6]", "result": 1000, "unit": "nM"}, {"measurement": "IC50", "setting": "[7]", "result": 100, "unit": "nM"}, {"measurement": "IC50", "setting": "[8]; BxPC-3 cells (TG2-deficient), 72 hours", "result": 10, "unit": "nM"}, {"measurement": "IC50", "setting": "[8]; BxPC-3 cells infected with TG2wt adenoviral construct, data not shown", "result": 100, "unit": "nM"}, {"measurement": "metastasis score", "setting": "[9]", "result": "completely ineffective in inhibiting metastasis; also recorded: no decreases in the metastasis score"}, {"measurement": "pAkt (serine 473) in tumors", "setting": "[10]", "result": "no significant changes in NF-κB activity or pAkt levels"}, {"measurement": "Ki-67 staining", "setting": "[11]", "result": "high levels of Ki-67 staining"}, {"measurement": "mean blood vessel / microvascular density", "setting": "[12]", "result": "significant decrease in the mean blood vessel density"}, {"measurement": "apoptotic cells in tumors", "setting": "[13]", "result": "significant increases in the numbers of apoptotic cells"}]}, {"compound": "TNF-α", "values": [{"measurement": "SEAP reporter expression", "setting": "[4]; TNF 1 nM, fold over non-transfected control", "result": 14, "unit": "fold"}]}]}
